Assay results as given in patent US5973201A, “Phenylacetamide derivatives” (Korea Research Institute of Chemical Technology, priority 1995, dated 1999).

Key:
[1] = phenyl-1,4-benzoquinone (PBQ) induced writhing test (analgesic effect); format: in vivo, KTC-ICR rats; conditions: Mus musculus
Procedure: (§1) The physiological activities of the compounds of the present invention prepared according to Example 1 to 6 were measured by employing acetic acid or phenyl-1,4-benzoquinone (PBQ) induced writhing test method.
(§2) In case of the acetic acid-induced writhing test, KTC-ICR […] (available from animal laboratory of Korea Research Institute of Chemical Technology) each having a body weight of 20-25 g were used, while in the PBQ induced writhing test, KTC-ICR […] each having a body weight of 14-18 g were employed. A group consisting of 8 mice which had been adjusted to the testing environment for a week were used in determining the effects of each dosage of a test compound. Water and food were given frelly and illumination was maintained on a 12-hour cycle.
(§3) Test solutions were prepared by dissolving one of the final products obtained in Examples 1 to 6 in distilled water containing 1% of Tween and 5% ethanol in a pre-determined concentration. The test solutions were used after serial dilution depending on each dosage.
(§4) The test solutions were […] administered in a dose of 0.1 ml per 10 g of a body weight. 0.1 ml of 1% acetic acid solution or 0.1 ml of 0.02% PBQ solution was administered […] or after 30 minutes in case of subcutaneous injection.
(§5) Then, the number of writhings generated during a period of 10 minutes after 3 minutes from the administration of acetic acid was measured. in case of the administration of PBQ, the number of writhings generated during a period of 5 minutes after 5 minutes from the administration was measured.
(§6) For a comparison purpose, initially, distilled water containing 1% of Tween and 5% ethanol alone was administered to the control group. Then, the control groups were subjeted the same procedure as the test groups.
(§7) The number of writhings suffered by the test group was compared with that of the control group; and the analgesic effect was measured in terms of the percentage of inhibition of writhing (I.W.). [formula] wherein: A is the number of writhings suffered by the control group; and
(§8) B is the number of writhings suffered by the test group.
(§9) I.W. values for each dosage were calculated by employing regression analysis. The amount of a test compound which is required in reducing the frequency of writhings to the 50% level of that generated by the control group, i.e., B=0.5A or I.W.=50%, is designated as ED50 (mg/kg of a body weight). Therefore, a lower value of ED50 represents a higher analgesic effect of the tested compound.

[2] = acetic acid-induced writhing test (analgesic effect); format: in vivo, KTC-ICR rats; conditions: Mus musculus
Procedure: as §1, §2, §3, §4, §5, §6, §7, §8, §9

[3] = Toxicity test: behavioral changes in the test animals; format: in vivo; conditions: score; for Convulsion / Salivation / Urination: normal value 0; for Dyspnoea / Ptosis / Sedation / Vasodilation: normal value 4
[4] = PBQ, dose reducing writhing to 50% of control, read-out: ED50
[5] = acetic acid, dose reducing writhing to 50% of control, read-out: ED50

## CC(=O)Oc1ccccc1C(=O)O [Aspirin, acetylsalicylic acid]
[1]
  ED50: 71.4 mg/kg

## COc1cc(CNC(=O)CCCC/C=C/C(C)C)ccc1O [Capsaicin, N-vanillyl-trans-8-methyl-6-nonenamide, reference compound]
[2]
  ED50: 1.34 mg/kg

## COc1cc(CC(=O)NCCCc2ccc(C)c(C)c2)ccc1OCCN [Control, reference compound]
[3]; 0.25 mg/kg
  Convulsion: 1
  Salivation: 0
  Urination: 0
  Dyspnoea: 5
  Ptosis: 6
  Sedation: 6
  Vasodilation: 5
[3]; 0.5 mg/kg
  Convulsion: 1
  Salivation: 0
  Urination: 0
  Dyspnoea: 6
  Ptosis: 7
  Sedation: 7
  Vasodilation: 5
[3]; 1 mg/kg
  Convulsion: 1
  Salivation: 0
  Urination: 0
  Dyspnoea: 6
  Ptosis: 7
  Sedation: 7
  Vasodilation: 6

## COc1cc(CC(=O)NCCOc2ccc(C)c(C)c2)ccc1OCCN [Example 1, N-{2-(3,4-dimethylphenoxy)ethyl}-4-(2-aminoethoxy)-3-methoxyphenylacetamide]
[1]; [4]
  ED50: 9.53 mg/kg

## COc1cc(CC(=O)NCCCOc2ccc(C)c(C)c2)ccc1OCCN [Example 2, N-{3-(3,4-dimethylphenoxy)propyl}-4-(2-aminoethoxy)-3-methoxyphenylacetamide]
[1]; [4]
  ED50: 7.02 mg/kg
[3]; 2.5 mg/kg
  Convulsion: 0
  Salivation: 0
  Urination: 0
  Dyspnoea: 4
  Ptosis: 4
  Sedation: 4
  Vasodilation: 4
[3]; 5 mg/kg
  Convulsion: 0
  Salivation: 0
  Urination: 0
  Dyspnoea: 5
  Ptosis: 6
  Sedation: 6
  Vasodilation: 5
[3]; 10 mg/kg
  Convulsion: 0
  Salivation: 0
  Urination: 0
  Dyspnoea: 7
  Ptosis: 6
  Sedation: 7
  Vasodilation: 6

## COc1cc(CC(=O)NCCOCc2ccc(C)c(C)c2)ccc1OCCN [Example 3, N-{2-(3,4-dimethylbenzyloxy)ethyl}-4-(2-aminoethoxy)-3-methoxyphenylacetamide]
[1]; [4]
  ED50: 10.9 mg/kg
[3]; 5 mg/kg
  Convulsion: 0
  Salivation: 0
  Urination: 0
  Dyspnoea: 4
  Ptosis: 4
  Sedation: 4
  Vasodilation: 4
[3]; 10 mg/kg
  Convulsion: 0
  Salivation: 0
  Urination: 0
  Dyspnoea: 4
  Ptosis: 4
  Sedation: 4
  Vasodilation: 4
[3]; 20 mg/kg
  Convulsion: 0
  Salivation: 0
  Urination: 0
  Dyspnoea: 4
  Ptosis: 5
  Sedation: 5
  Vasodilation: 4

## COc1cc(CC(=O)NCCOCc2ccc(C)c(C)c2)ccc1O [Example 4, N-{2-(3,4-dimethylbenzyloxy)ethyl}-4-hydroxy-3-methoxyphenylacetamide]
[2]; [5]
  ED50: 2.08 mg/kg
[3]; 1.25 mg/kg
  Convulsion: 0
  Salivation: 0
  Urination: 0
  Dyspnoea: 4
  Ptosis: 4
  Sedation: 4
  Vasodilation: 4
[3]; 2.5 mg/kg
  Convulsion: 0
  Salivation: 0
  Urination: 0
  Dyspnoea: 5
  Ptosis: 6
  Sedation: 6
  Vasodilation: 4
[3]; 5 mg/kg
  Convulsion: 0
  Salivation: 0
  Urination: 0
  Dyspnoea: 6
  Ptosis: 7
  Sedation: 7
  Vasodilation: 5

## COc1cc(CC(=O)NCCSc2ccc(C)cc2)ccc1OCCN [Example 5, N-{2-(4-methylthiophenoxy)ethyl}-4-(2-aminoethoxy)-3-methoxyphenylacetamide]
[2]; [5]
  ED50: 0.84 mg/kg
[3]; 0.63 mg/kg
  Convulsion: 0
  Salivation: 0
  Urination: 0
  Dyspnoea: 4
  Ptosis: 4
  Sedation: 4
  Vasodilation: 4
[3]; 1.25 mg/kg
  Convulsion: 0
  Salivation: 0
  Urination: 0
  Dyspnoea: 6
  Ptosis: 6
  Sedation: 6
  Vasodilation: 4
[3]; 2.5 mg/kg
  Convulsion: 0
  Salivation: 0
  Urination: 0
  Dyspnoea: 6
  Ptosis: 6
  Sedation: 7
  Vasodilation: 5

## COc1cc(CC(=O)NCCSc2ccc(C)c(C)c2)ccc1OCCN [Example 6, N-{2-(3,4-dimethylthiophenoxy)ethyl}-4-(2-aminoethoxy)-3-methoxyphenylacetarnide]
[2]; [5]
  ED50: 0.48 mg/kg
[3]; 0.31 mg/kg
  Convulsion: 0
  Salivation: 0
  Urination: 0
  Dyspnoea: 4
  Ptosis: 4
  Sedation: 4
  Vasodilation: 4
[3]; 0.63 mg/kg
  Convulsion: 0
  Salivation: 0
  Urination: 0
  Dyspnoea: 4
  Ptosis: 5
  Sedation: 6
  Vasodilation: 4
[3]; 1.25 mg/kg
  Convulsion: 0
  Salivation: 0
  Urination: 0
  Dyspnoea: 6
  Ptosis: 6
  Sedation: 6
  Vasodilation: 5

## CC(C)Cc1ccc(C(C)C(=O)O)cc1 (centres unmarked) [Ibuprofen]
[1]; [4]
  ED50: 11 mg/kg

## CCCCCCCC/C=C\CCCCCCCC(=O)NCc1ccc(O)c(OC)c1 [NE-19550, Nvanillyloleamide, reference compound]
[2]
  ED50: 15.7 mg/kg

## CCCCCCCC/C=C\CCCCCCCC(=O)NCc1ccc(OCCN)c(OC)c1 [NE-21610, reference compound]
[2]; [5]
  ED50: > 300 mg/kg
[1]; [4]
  ED50: 38.3 mg/kg

## COc1ccc2cc([C@H](C)C(=O)O)ccc2c1 [Naproxen]
[1]; [4]
  ED50: 17.1 mg/kg

## CCCCC1C(=O)N(c2ccccc2)N(c2ccccc2)C1=O [Phenylbutazone]
[1]; [4]
  ED50: 79.8 mg/kg
